In patent publication US12371454B2, “Cyclic peptide compound having Kras inhibitory action” (priority 2019, dated 2025):
Starred links: 1 amine or outer side, 2 acyl side, 3 side chain; linkers in the order of their positions; H or OH if unused. Positions of bridges follow the written chain, without caps; N, C: chain ends. Non-standard residues stand in square brackets, D forms with d. Residues, ends and D or L forms follow the SMILES beside them. *: point of attachment. hPhe(3-Cl-4-CF3) = N[C@@H](CCc1ccc(C(F)(F)F)c(Cl)c1)C(=O)O; X19 = CC(C)(C)Oc1cc(CC[C@H](N[*:1])C(=O)[*:2])cc(Cl)c1Cl; X28 = CCCCOc1cc(CC[C@H](N[*:1])C(=O)[*:2])cc(Cl)c1Cl; X15 = COc1cc(CC[C@H](N[*:1])C(=O)[*:2])cc(Cl)c1Cl; X52 = CN([C@@H](Cc1ccc(C#N)nc1)C(=O)[*:2])[*:1]; X21 = O=C(CN(c1cccc(Cl)c1)[*:1])[*:2]; X43 = O=C(CN(c1ccc(Cl)cc1)[*:1])[*:2]; NMeGly(cBu) = CN[C@H](C(=O)O)C1CCC1; NMeCha = CN[C@@H](CC1CCCCC1)C(=O)O; NMeChg = CN[C@H](C(=O)O)C1CCCCC1; X7 = O=C(CN(c1ccsc1)[*:1])[*:2]; NMeD = CN[C@@H](CC(=O)O)C(=O)O; NMeL = CN[C@@H](CC(C)C)C(=O)O; NMeV = CN[C@H](C(=O)O)C(C)C; NPhGly = O=C(O)CNc1ccccc1; NMeA = CN[C@@H](C)C(=O)O; NMeAib = CNC(C)(C)C(=O)O; Piperidide = C1CCN(*)CC1; Ac5c = NC1(C(=O)O)CCCC1; Aze = O=C(O)[C@@H]1CCN1; Sar = CNCC(=O)O

Tests used:
[1] = tested on: Human pancreatic cancer cell line AsPC-1; assay: Measurement of AsPC-1 cell growth inhibition (AsPC-1 CGI); type: cell-based; conditions: 96 h
In short: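 AsPC-1 cells in 15% FBS RPMI-1640 were exposed to test compound for 96 hours at 37° C, with CellTiter-Glo as endpoint.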

[2] = molecular target: T1, Kras and SOS1 (biotin-tagged human Kras loaded with GDP, His-tagged human SOS1) (Homo sapiens, UniProt P01116, G12D); assay: Protein-protein interaction inhibition between Kras and SOS1 (KrasGl2D-SOS PPI) using AlphaScreen; type: binding; conditions: AlphaScreen; biotin-tagged human Kras loaded with GDP, His-tagged human SOS1; read-out: KRAS G12D-SOS PPI IC50
T1 construct: made in house; host or cells: E. coli (stated for Kras only)
In short: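 Binding between SOS1 and Kras is detected as bead-proximity luminescence: illuminate Ni-conjugated donors (680 nm), collect 520-620 nm emission from streptavidin-conjugated acceptors; Kras carries biotin and GDP loaded after purification, SOS1 carries a His tag.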

T1 sequence (P01116 1-188 isoform P01116-2 G12D): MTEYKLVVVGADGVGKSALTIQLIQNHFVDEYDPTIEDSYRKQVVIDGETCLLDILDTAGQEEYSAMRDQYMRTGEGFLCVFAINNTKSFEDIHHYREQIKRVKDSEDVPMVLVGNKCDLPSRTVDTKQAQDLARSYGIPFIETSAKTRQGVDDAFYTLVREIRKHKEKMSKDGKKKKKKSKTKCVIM

SMILES: CC[C@H](C)[C@@H]1NC(=O)[C@H](C)N(C)C(=O)C[C@@H](C(=O)N2CCCCC2)N(C)C(=O)[C@H](C2CCCCC2)N(C)C(=O)C2(CCCC2)NC(=O)[C@@H]2CCCN2C(=O)[C@H](CCc2cc(Cl)c(Cl)c(OC)c2)NC(=O)CN(C)C(=O)[C@H](CC2CCCCC2)N(C)C(=O)CN(C)C(=O)CN(C)C1=O [Compound 2081] ([NMeA]I[Sar][Sar][NMeCha][Sar][X15]P[Ac5c][NMeChg][NMeD]-Piperidide; lactam N-11)
- IC50 [1]: > 500 nM
- IC50 [2]: 2 nM

SMILES: CC[C@H](C)[C@@H]1NC(=O)[C@H](C)N(C)C(=O)C[C@@H](C(=O)N2CCCCC2)N(C)C(=O)[C@H](C2CCCCC2)N(C)C(=O)C2(CCCC2)NC(=O)[C@@H]2CCCN2C(=O)[C@H](CCc2cc(Cl)c(Cl)c(OC(C)(C)C)c2)NC(=O)CN(C)C(=O)[C@H](CC2CCCCC2)N(C)C(=O)CN(C)C(=O)CN(C)C1=O [Compound 2082] ([NMeA]I[Sar][Sar][NMeCha][Sar][X19]P[Ac5c][NMeChg][NMeD]-Piperidide; lactam N-11)
- IC50 [1]: > 500 nM
- IC50 [2]: 41 nM

SMILES: CCCCOc1cc(CC[C@@H]2NC(=O)CN(C)C(=O)[C@H](CC3CCCCC3)N(C)C(=O)CN(C)C(=O)CN(C)C(=O)[C@H]([C@@H](C)CC)NC(=O)[C@H](C)N(C)C(=O)C[C@@H](C(=O)N3CCCCC3)N(C)C(=O)[C@H](C(C)C)N(C)C(=O)C3(CCCC3)NC(=O)[C@@H]3CCCN3C2=O)cc(Cl)c1Cl [Compound 2083] ([NMeA]I[Sar][Sar][NMeCha][Sar][X28]P[Ac5c][NMeV][NMeD]-Piperidide; lactam N-11)
- IC50 [1]: > 500 nM
- IC50 [2]: 52 nM

SMILES: CC[C@H](C)[C@@H]1NC(=O)[C@H](C)N(C)C(=O)C[C@@H](C(=O)N2CCCCC2)N(C)C(=O)[C@H](C2CCC2)N(C)C(=O)C(C)(C)N(C)C(=O)CN(c2ccccc2)C(=O)[C@H](CCc2ccc(C(F)(F)F)c(Cl)c2)NC(=O)CN(C)C(=O)[C@H](C2CCC2)N(C)C(=O)[C@@H]2CCN2C(=O)[C@H](C)N(C)C1=O [Compound 2144] ([NMeA]I[NMeA][Aze][NMeGly(cBu)][Sar][hPhe(3-Cl-4-CF3)][NPhGly][NMeAib][NMeGly(cBu)][NMeD]-Piperidide; lactam N-11)
- IC50 [1]: > 500 nM
- IC50 [2]: 6.9 nM

SMILES: CC[C@H](C)[C@@H]1NC(=O)[C@H](C)N(C)C(=O)C[C@@H](C(=O)N2CCCCC2)N(C)C(=O)[C@H](C2CCC2)N(C)C(=O)C(C)(C)N(C)C(=O)CN(c2cccc(Cl)c2)C(=O)[C@H](CCc2ccc(C(F)(F)F)c(Cl)c2)NC(=O)CN(C)C(=O)[C@H](C2CCC2)N(C)C(=O)[C@@H]2CCN2C(=O)[C@H](C)N(C)C1=O [Compound 2146] ([NMeA]I[NMeA][Aze][NMeGly(cBu)][Sar][hPhe(3-Cl-4-CF3)][X21][NMeAib][NMeGly(cBu)][NMeD]-Piperidide; lactam N-11)
- IC50 [1]: > 500 nM
- IC50 [2]: 5.1 nM

SMILES: CC[C@H](C)[C@@H]1NC(=O)[C@H](C)N(C)C(=O)C[C@@H](C(=O)N2CCCCC2)N(C)C(=O)[C@H](C2CCC2)N(C)C(=O)C(C)(C)N(C)C(=O)CN(c2ccc(Cl)cc2)C(=O)[C@H](CCc2ccc(C(F)(F)F)c(Cl)c2)NC(=O)CN(C)C(=O)[C@H](C2CCC2)N(C)C(=O)[C@@H]2CCN2C(=O)[C@H](C)N(C)C1=O [Compound 2147] ([NMeA]I[NMeA][Aze][NMeGly(cBu)][Sar][hPhe(3-Cl-4-CF3)][X43][NMeAib][NMeGly(cBu)][NMeD]-Piperidide; lactam N-11)
- IC50 [1]: > 500 nM
- IC50 [2]: 8 nM

SMILES: CC[C@H](C)[C@@H]1NC(=O)[C@H](C)N(C)C(=O)C[C@@H](C(=O)N2CCCCC2)N(C)C(=O)[C@H](C2CCC2)N(C)C(=O)C2(CCCC2)NC(=O)CN(c2ccsc2)C(=O)[C@H](CCc2ccc(C(F)(F)F)c(Cl)c2)NC(=O)CN(C)C(=O)[C@H](CC2CCCCC2)N(C)C(=O)CN(C)C(=O)CN(C)C1=O [Compound 2149] ([NMeA]I[Sar][Sar][NMeCha][Sar][hPhe(3-Cl-4-CF3)][X7][Ac5c][NMeGly(cBu)][NMeD]-Piperidide; lactam N-11)
- IC50 [1]: > 500 nM
- IC50 [2]: 4 nM

SMILES: CC[C@H](C)[C@@H]1NC(=O)[C@H](CC(C)C)N(C)C(=O)C[C@@H](C(=O)N2CCCCC2)N(C)C(=O)[C@H](C2CCCCC2)N(C)C(=O)C2(CCCC2)NC(=O)[C@H](Cc2ccc(C#N)nc2)N(C)C(=O)[C@H](CCc2ccc(C(F)(F)F)c(Cl)c2)NC(=O)CN(C)C(=O)[C@H](CC2CCCCC2)N(C)C(=O)CN(C)C(=O)CN(C)C1=O [Compound 2169] ([NMeL]I[Sar][Sar][NMeCha][Sar][hPhe(3-Cl-4-CF3)][X52][Ac5c][NMeChg][NMeD]-Piperidide; lactam N-11)
- IC50 [1]: > 500 nM
- IC50 [2]: 6.1 nM
